# Measured values: patent publication US10053455B2, “Diazaspiroalkaneone-substituted oxazole derivatives as spleen tyrosine kinase inhibitors” (AB SCIENCE, priority 2014, dated 2018)
# Where two headings read alike, the source gives them in different places.
# Legend:
# [1] = system: murine model of arthritis; experiment: K/BxN serum mouse model of rheumatoid arthritis: ankle thickening and arthritis score; assay type: in vivo, C57Bl/6 mice
# Method: K/B×N serum pools were prepared from arthritic mice at 8 weeks of age. The mice were pre-treated with SYK inhibitors by two per os administration for two days before induction of arthritis. Arthritis was induced in the C57Bl/6 mice (8 weeks of age) by intraperitoneal injection (7.5 μl serum per g weight) at days 0 and 2.
# The treatment with SYK inhibitors was continued for 13 days. The control mice were injected with solvent before the induction of arthritis and during the course of the disease. The compounds were dissolved in a solution containing 10% of Tween 80 and 10% 1-2 propandiol. It was prepared before administration.
# Ankle thickening measure, being defined as the difference in ankle thickness from the day 0, was measured using a precision calliper. Arthritis/clinical score was defined by sum of scores of each lim (0 no disease; 1 mild swelling of paw or of just of few digits; 2 clear joint inflammation; 3 severe joint inflammation) maximum score=12.
# K/B×N was a murine model of spontaneous rheumatoid arthritis that mimics many of the clinical and histological features of human disease with synovitis predominantly in the distal small joints. Arthritis was induced by intraperitoneal injection of arthritis serum of K/B×N mice at days 0 and 2 as described in protocol assays above. Compound 001 was tested at 15 and 50 mg/kg/day b.i.d. and compared with Masitinib at 50 mg/kg/day b.i.d., an AB Science drug candidate for treating rheumatoid arthritis (Arthritis Res Ther., (2009), 11(3):R95). Ankle thickening and arthritis score were used to monitor the in vivo activity of the compounds.
# [2] = WST-1 cell survival/proliferation assay on rat cardiomyocytes; assay type: cell-based; conditions: Rat Cardiac Myocyte
# Method: (§1) WST-1 cell survival/proliferation assay (Roche Diagnostic ref No 1644807) was performed on both primary human adult cardiomyocytes and rat neonatal cardiac myocytes.
# (§2) Human cardiomyocytes were isolated from normal human ventricle tissue of the adult heart and were able to proliferate for a number of passage. Neonatal ventricular Clonetics® Rat Cardiac Myocytes (P1-3) retained their contractile property and were electrophysiologically active in culture. 1.10^4 primary rat cells or 2-2.5 10^4 adult human cells were plated per well of a 96 wells plates. The cells were allowed to adhere to the plates for 5 days before drug treatment. Treatment was initiated by addition of a 2× drug solution of ½ serial dilutions ranging from 0 to 10 μM. Cells were grown for 48 h at 37° C. and then incubated with 10 μl/well of WST-1 reagent for 4 h at 37° C. The amount of formazan dye formed was quantified by its absorbance at 450 nm using a scanning multiwell spectrophotometer (MultiSkan MS, Thermo-LabSystems, France). A blank well without cells was used as a background control for the spectrophotometer and all assays were performed in triplicate.
# Flt3 = Flt3 (Homo sapiens (Human), UniProt P36888); experiment: Cell-based proliferation assay on BaF3 model, Flt3
# Chain of Flt3 (P36888 27-993, species assumed): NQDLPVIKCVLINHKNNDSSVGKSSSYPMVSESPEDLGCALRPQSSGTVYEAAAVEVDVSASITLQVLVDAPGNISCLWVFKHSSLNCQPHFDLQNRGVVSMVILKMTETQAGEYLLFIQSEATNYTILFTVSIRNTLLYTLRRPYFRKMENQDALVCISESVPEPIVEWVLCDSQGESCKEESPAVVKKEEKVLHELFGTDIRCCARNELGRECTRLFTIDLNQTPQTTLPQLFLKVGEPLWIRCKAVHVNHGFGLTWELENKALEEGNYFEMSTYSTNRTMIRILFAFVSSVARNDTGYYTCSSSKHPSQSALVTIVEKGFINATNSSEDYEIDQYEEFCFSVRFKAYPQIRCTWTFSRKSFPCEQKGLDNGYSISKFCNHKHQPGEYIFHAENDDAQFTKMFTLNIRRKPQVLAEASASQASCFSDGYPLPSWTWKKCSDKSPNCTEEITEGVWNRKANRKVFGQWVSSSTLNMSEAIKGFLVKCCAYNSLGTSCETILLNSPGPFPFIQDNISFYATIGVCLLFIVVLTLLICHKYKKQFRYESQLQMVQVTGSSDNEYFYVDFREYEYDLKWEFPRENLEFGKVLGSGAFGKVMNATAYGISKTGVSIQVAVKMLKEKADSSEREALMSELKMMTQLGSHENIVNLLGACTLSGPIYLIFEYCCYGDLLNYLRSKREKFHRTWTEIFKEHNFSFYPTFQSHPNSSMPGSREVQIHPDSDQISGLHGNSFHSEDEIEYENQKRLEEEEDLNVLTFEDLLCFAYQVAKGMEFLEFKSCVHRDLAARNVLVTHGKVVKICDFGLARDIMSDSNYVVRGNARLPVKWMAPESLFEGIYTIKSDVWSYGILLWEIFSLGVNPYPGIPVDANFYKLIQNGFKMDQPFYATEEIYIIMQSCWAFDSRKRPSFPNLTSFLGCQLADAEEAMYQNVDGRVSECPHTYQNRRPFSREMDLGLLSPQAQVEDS
# Method: (§3) Cell-based proliferation and viability assay CellTiter-Bleue cell-based survival/proliferation assay (Promega G8080) was performed on BaF3 models.
# (§4) A total of 1.10^4 cells/well/50 μl were seeded in a 96-wells plate. Treatment was initiated by addition of a 2× drug solution of ½ serial dilutions ranging from 0 to 10 μM. Cells were grown for 48-72 h at 37° C. and then incubated with 10 μl/well of Promega CellTiter-Bleue reagent for 4 h at 37° C. The amount of formazan dye formed was quantified by its absorbance at 450 nm using a scanning multiwell spectrophotometer (POLARstar Omega, BMG labtech, France). A blank well without cells was used as a background control for the spectrophotometer and all assays were performed in duplicates and the experiments were repeated at least twice.
# [3] = WST-1 cell survival/proliferation assay on human cardiomyocytes; assay type: cell-based; conditions: Human Cardiac Myocyte
# Method: as §1, §2
# TEL-SYK = TEL-SYK (Homo sapiens, UniProt P43405); experiment: Cell-based proliferation assay on BaF3 model, TEL-SYK
# Method: as §3, §4
# Jak2 = Jak2 (Homo sapiens (Human), UniProt O60674); experiment: HTRF kinase assay, Jak2; assay type: biochemical; conditions: enzymatic determination
# Chain of Jak2 (O60674 whole entry): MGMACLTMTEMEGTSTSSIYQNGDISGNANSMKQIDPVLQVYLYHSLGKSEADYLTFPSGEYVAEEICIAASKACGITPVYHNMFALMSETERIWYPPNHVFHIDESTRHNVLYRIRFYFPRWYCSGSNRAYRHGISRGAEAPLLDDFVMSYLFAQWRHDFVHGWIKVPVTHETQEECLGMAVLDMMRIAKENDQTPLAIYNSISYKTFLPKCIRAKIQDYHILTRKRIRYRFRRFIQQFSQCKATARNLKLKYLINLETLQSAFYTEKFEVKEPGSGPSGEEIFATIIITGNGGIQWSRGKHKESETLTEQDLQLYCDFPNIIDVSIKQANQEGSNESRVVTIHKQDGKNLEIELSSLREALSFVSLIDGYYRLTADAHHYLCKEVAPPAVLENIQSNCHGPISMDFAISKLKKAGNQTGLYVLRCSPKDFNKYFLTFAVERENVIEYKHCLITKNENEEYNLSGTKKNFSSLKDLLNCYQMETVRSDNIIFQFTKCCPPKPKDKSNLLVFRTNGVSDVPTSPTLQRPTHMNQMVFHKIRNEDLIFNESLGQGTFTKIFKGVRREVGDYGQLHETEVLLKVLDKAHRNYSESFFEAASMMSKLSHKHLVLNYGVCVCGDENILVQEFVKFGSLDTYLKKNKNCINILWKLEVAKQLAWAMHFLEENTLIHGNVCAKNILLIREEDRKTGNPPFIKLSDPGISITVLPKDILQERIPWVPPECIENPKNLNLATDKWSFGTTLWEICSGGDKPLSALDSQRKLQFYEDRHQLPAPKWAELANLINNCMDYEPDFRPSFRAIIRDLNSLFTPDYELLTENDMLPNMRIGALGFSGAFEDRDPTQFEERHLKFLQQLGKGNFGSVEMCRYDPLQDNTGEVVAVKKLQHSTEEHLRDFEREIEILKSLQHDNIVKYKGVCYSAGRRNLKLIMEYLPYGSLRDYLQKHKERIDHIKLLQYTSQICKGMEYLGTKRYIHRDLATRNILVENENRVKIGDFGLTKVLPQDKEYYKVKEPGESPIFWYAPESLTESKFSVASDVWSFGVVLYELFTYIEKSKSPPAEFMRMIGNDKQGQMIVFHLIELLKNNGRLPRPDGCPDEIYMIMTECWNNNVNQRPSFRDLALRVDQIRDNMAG
# Method: Most of the kinases tested in this study were cloned, expressed and purified in the facilities of the inventors. They were expressed either as N-terminus hexahistidine-, hexahistidine-asparagine- or GST-tagged enzymes in a baculovirus or in a Colibacille expression system. Remaining enzymes (JAKs) were purchased from Millipore or Proqinase. For each enzyme, steady state kinetic parameters were determined and validated with known inhibitors.
# The analysis of the effect of compounds on kinase activity was assessed with the HTRF® KinEASE assay (Cisbio International), an immuno-assay based on the quantification of the level of phosphorylation of a biotinylated peptide substrate using anti-phospho-specific antibody labeled with Europium (Eu^3+) cryptate. This assay comprises two steps: —an enzymatic step, during which the peptide substrate, the kinase, ATP, Mg^2+ and/or Mn^2+ are incubated with varying concentration of drug (from 0 to 10 μM); —a detection step, at the end of the reaction (stopped by addition of EDTA which chelates Mg^2+), the antibody anti-phospho peptide-Eu^3+ (emission 620 nm) and streptavidin XL-665 (emission 665 nm) are added to the reaction mix. […] Results are expressed in delta fluorescence (DF) unit defined as follow DF %=[(ratio−ratio blank)/(ratio blank)]*100, where ratio=(665 nm/620 nm)*10^4. […]
# IL6 = experiment: FcεRI and Kit-induced IL6 cytokine release in BMMCs; assay type: cell-based, C57BL/6J mice
# Method: Murine bone marrow mast cells (BMMCs) are obtained by flushing bone marrow cells from the femurs of C57BL/6J mice, and then cultured for 3-4 weeks in RPMI containing mouse recombinant IL-3 (30 ng/ml). Cells were sensitized overnight in IL3-depleted culture medium with 0.1-0.2 μg/ml anti-DNP-IgE (Sigma-Aldrich D8406). Cells were preincubated with inhibitors for 30 min, and then stimulated with 10 ng/ml antigen (Ag) and/or Stem Cell Factor (SCF) (30 ng/ml). The cells were incubated for 6 h. The supernatants were harvested, and the cytokine content measured using CISBIO IL6 and TNFα HTRF assay (cat#63ADKEBU043 and 6FMTNPEB respectively).
compound,measurement,setting,value
"Cc1ccnc(Nc2cccc(-c3cnc(N4CCNC(=O)C45CC5)o3)c2)n1 [Compound 001, 4-{5-[3-(4-Methyl-pyrimidin-2-ylamino)-phenyl]-oxazol-2-yl}-4,7-diaza-spiro[2.5]octan-8-one]",Ankle Thickening Score,[1]; 15 mg/kg b.i.d.,−17%
same,Arthritis Score,[1]; 15 mg/kg b.i.d.,−23%
same,Ankle Thickening Score,[1]; 50 mg/kg b.i.d.,−52% P < 0.005
same,Arthritis Score,[1]; 50 mg/kg b.i.d.,−68% P < 0.005
same,reduction of ankle thickening,[1]; 2×50 mg/kg/day,52%
same,reduction of arthritis score,[1]; 2×50 mg/kg/day,68%
same,IC50 at 48 h,"[2]; neonatal ventricular rat cardiac myocytes (Clonetics, P1-3), 48 h, read-out: Drug-induced cytotoxicity IC50, Rat-CM",10000 nM
same,"viability change vs untreated control at 48 h, 1 µM","[2]; rat neonatal cardiac myocytes, 1 μM",-2%
same,IC50,Flt3,6000 nM
same,IC50 at 48 h,"[3]; 48 h, read-out: Drug-induced cytotoxicity IC50, Hu-CM",10000 nM
same,"viability at 48 h, 1 µM","[3]; primary human adult cardiomyocytes, 1 μM, read-out: % cell viable at 1 μM, Hu-CM",14%
same,IC50,TEL-SYK; read-out: Kinase activity profile IC50 Tel-Syk,272 nM
same,IC50,TEL-SYK; read-out: TEL-SYK IC50,270 nM
same,IC50,Jak2; read-out: Jak2 IC50,900 nM
same,IC50,Jak2; read-out: Kinase activity profile IC50 JAK 2,920 nM
same,IL6 Cytokine Release (% relative to control Ag + SCF),IL6; Ag + SCF + 0.01 μM of compound,89%
same,IL6 Cytokine Release (Relative Fluorescence Units),IL6; Ag + SCF + 0.01 μM of compound,756.5 Relative Fluorescence Units
same,IL6 Cytokine Release (% relative to control Ag + SCF),IL6; Ag + SCF + 0.1 μM of compound,29%
same,IL6 Cytokine Release (Relative Fluorescence Units),IL6; Ag + SCF + 0.1 μM of compound,249 Relative Fluorescence Units
same,IL6 Cytokine Release (% relative to control Ag + SCF),IL6; Ag + SCF + 1 μM of compound,6%
same,IL6 Cytokine Release (Relative Fluorescence Units),IL6; Ag + SCF + 1 μM of compound,54 Relative Fluorescence Units
same,IC50,"IL6; Mus musculus, BMMC, Ag + SCF stimulated BMMCs, read-out: IL-6 release IC50",~50 nM
